Assay results reported in paper doi:10.1101/2024.08.19.608619, “Discovery of potent SARS-CoV-2 nsp3 macrodomain inhibitors uncovers lack of translation to cellular antiviral response” (bioRxiv, 2024).
Like-named read-outs stand apart in the source and are kept apart here.

Legend:
SARS-CoV-2 nsp3-mac1 [1] = molecular target: T1, SARS-CoV-2 nsp3-mac1 (Severe acute respiratory syndrome coronavirus 2, UniProt P0DTD1); test: biochemical; format: biochemical; settings: SARS-CoV-2 nsp3 macrodomain TR-FRET single point, n=2
SARS-CoV-2 nsp3-mac1 [2] = molecular target: T1, SARS-CoV-2 nsp3-mac1; test: biochemical; design: SARS-CoV-2 nsp3 macrodomain TR-FRET single point, per cent inhibition, n=2
[3] = read-out: perc_inhibition_mean, batch_name=ASAP-0000304-001
[4] = read-out: perc_inhibition_mean, batch_name=ASAP-0000305-001
[5] = read-out: perc_inhibition_mean, batch_name=ASAP-0000306-001
[6] = read-out: perc_inhibition_mean, batch_name=ASAP-0000307-001
[7] = read-out: perc_inhibition_mean, batch_name=ASAP-0000308-001
[8] = read-out: perc_inhibition_mean, batch_name=ASAP-0000309-001
[9] = read-out: perc_inhibition_mean, batch_name=ASAP-0000310-001
[10] = read-out: perc_inhibition_mean, batch_name=ASAP-0000311-001
[11] = read-out: perc_inhibition_mean, batch_name=ASAP-0000312-001
[12] = read-out: perc_inhibition_mean, batch_name=ASAP-0000313-001
[13] = read-out: perc_inhibition_mean, batch_name=ASAP-0000314-001
[14] = read-out: perc_inhibition_mean, batch_name=ASAP-0000315-001
[15] = read-out: perc_inhibition_mean, batch_name=ASAP-0000316-001
[16] = read-out: perc_inhibition_mean, batch_name=ASAP-0000317-001
[17] = read-out: perc_inhibition_mean, batch_name=ASAP-0000318-001
[18] = read-out: perc_inhibition_mean, batch_name=ASAP-0000319-001
[19] = read-out: perc_inhibition_mean, batch_name=ASAP-0000320-001

| SMILES | perc_inhibition_mean (SARS-CoV-2 nsp3-mac1 [1]; concentration 49.75 uM) | perc_inhibition_mean (SARS-CoV-2 nsp3-mac1 [1]; concentration 99.5 uM) | other results |
| --- | --- | --- | --- |
| O=C(Nc1ccccc1)Nc1ccc(C(=O)NCc2ccnc(F)c2)cc1 [ASAP-0000304] | -0.36% | 4.92% | inhibition at 49.75 µM (SARS-CoV-2 nsp3-mac1 [2]; [3]): -0.36%; inhibition at 99.5 µM (SARS-CoV-2 nsp3-mac1 [2]; [3]): 4.92% |
| CC1(C)CNCCN1C(=O)c1ccc(NC(=O)Nc2ccccc2)cc1 [ASAP-0000305] | 2.242% | 1.393% | inhibition at 49.75 µM (SARS-CoV-2 nsp3-mac1 [2]; [4]): 2.24%; inhibition at 99.5 µM (SARS-CoV-2 nsp3-mac1 [2]; [4]): 1.39% |
| NCC(F)(F)CNC(=O)c1ccc(NC(=O)Nc2ccccc2)cc1 [ASAP-0000306] | -0.965% | -1.174% | inhibition at 49.75 µM (SARS-CoV-2 nsp3-mac1 [2]; [5]): -0.965%; inhibition at 99.5 µM (SARS-CoV-2 nsp3-mac1 [2]; [5]): -1.17% |
| Cn1cc(NC(=O)c2ccc(NC(=O)Nc3ccccc3)cc2)c(C#N)n1 [ASAP-0000307] | 2.492% | -0.539% | inhibition at 49.75 µM (SARS-CoV-2 nsp3-mac1 [2]; [6]): 2.49%; inhibition at 99.5 µM (SARS-CoV-2 nsp3-mac1 [2]; [6]): -0.539% |
| O=C(Nc1ccccc1)Nc1ccc(C(=O)NCCc2cccnc2)cc1 [ASAP-0000308] | 1.269% | 10.372% | inhibition at 49.75 µM (SARS-CoV-2 nsp3-mac1 [2]; [7]): 1.27%; inhibition at 99.5 µM (SARS-CoV-2 nsp3-mac1 [2]; [7]): 10.4% |
| COc1cccc(NC(=O)c2ccc(NC(=O)Nc3ccccc3)cc2)n1 [ASAP-0000309] | 4.647% | 5.367% | inhibition at 49.75 µM (SARS-CoV-2 nsp3-mac1 [2]; [8]): 4.65%; inhibition at 99.5 µM (SARS-CoV-2 nsp3-mac1 [2]; [8]): 5.37% |
| O=C(O)c1sccc1C(=O)N1CCC(c2ccn3ncc(C(=O)N4CCCCC4)c3c2)CC1 [ASAP-0000310] | 55.49% | 71.528% | inhibition at 49.75 µM (SARS-CoV-2 nsp3-mac1 [2]; [9]): 55.5%; inhibition at 99.5 µM (SARS-CoV-2 nsp3-mac1 [2]; [9]): 71.5% |
| O=C(CCN(Cc1cccc(Cl)c1)C(=O)c1ccccc1F)N1CCNCC1 [ASAP-0000311] | -0.625% | 0.395% | inhibition at 49.75 µM (SARS-CoV-2 nsp3-mac1 [2]; [10]): -0.625%; inhibition at 99.5 µM (SARS-CoV-2 nsp3-mac1 [2]; [10]): 0.395% |
| C[C@]1(C(=O)N(CCC(=O)N2CCNCC2)Cc2cccc(Cl)c2)CCCN1 [ASAP-0000312] | 1.403% | 2.129% | inhibition at 49.75 µM (SARS-CoV-2 nsp3-mac1 [2]; [11]): 1.4%; inhibition at 99.5 µM (SARS-CoV-2 nsp3-mac1 [2]; [11]): 2.13% |
| O=C(Nc1ccccc1)Nc1ccc(C(=O)Nc2ncccc2F)cc1 [ASAP-0000313] | 4.588% | 10.201% | inhibition at 49.75 µM (SARS-CoV-2 nsp3-mac1 [2]; [12]): 4.59%; inhibition at 99.5 µM (SARS-CoV-2 nsp3-mac1 [2]; [12]): 10.2% |
| Cc1ncc(C(=O)N(CCC(=O)N2CCNCC2)Cc2cccc(Cl)c2)cc1N [ASAP-0000314] | 1.351% | 1.305% | inhibition at 49.75 µM (SARS-CoV-2 nsp3-mac1 [2]; [13]): 1.35%; inhibition at 99.5 µM (SARS-CoV-2 nsp3-mac1 [2]; [13]): 1.3% |
| CC(C)c1c[nH]nc1NC(=O)c1ccc(NC(=O)Nc2ccccc2)cc1 [ASAP-0000315] | 6.988% | 8.502% | inhibition at 49.75 µM (SARS-CoV-2 nsp3-mac1 [2]; [14]): 6.99%; inhibition at 99.5 µM (SARS-CoV-2 nsp3-mac1 [2]; [14]): 8.5% |
| CCc1n[nH]c(NC(=O)c2ccc(NC(=O)Nc3ccccc3)cc2)c1Br [ASAP-0000316] | -5.574% | 0.467% | inhibition at 49.75 µM (SARS-CoV-2 nsp3-mac1 [2]; [15]): -5.57%; inhibition at 99.5 µM (SARS-CoV-2 nsp3-mac1 [2]; [15]): 0.467% |
| O=C(Nc1ccccc1)Nc1ccc(C(=O)Nc2nnc(C(F)(F)F)[nH]2)cc1 [ASAP-0000317] | -3.198% | -1.459% | inhibition at 49.75 µM (SARS-CoV-2 nsp3-mac1 [2]; [16]): -3.2%; inhibition at 99.5 µM (SARS-CoV-2 nsp3-mac1 [2]; [16]): -1.46% |
| O=C(CCN(Cc1cccc(Cl)c1)C(=O)c1c[nH]c(=O)cn1)N1CCNCC1 [ASAP-0000318] | -2.705% | 0.98% | inhibition at 49.75 µM (SARS-CoV-2 nsp3-mac1 [2]; [17]): -2.71%; inhibition at 99.5 µM (SARS-CoV-2 nsp3-mac1 [2]; [17]): 0.98% |
| Nc1ncc(C(=O)N(CCC(=O)N2CCNCC2)Cc2cccc(Cl)c2)cn1 [ASAP-0000319] | -2.76% | -1.726% | inhibition at 49.75 µM (SARS-CoV-2 nsp3-mac1 [2]; [18]): -2.76%; inhibition at 99.5 µM (SARS-CoV-2 nsp3-mac1 [2]; [18]): -1.73% |
| CCn1cc(CNC(=O)c2ccc(NC(=O)Nc3ccccc3)cc2)cn1 [ASAP-0000320] | -1.76% | 3.797% | inhibition at 49.75 µM (SARS-CoV-2 nsp3-mac1 [2]; [19]): -1.76%; inhibition at 99.5 µM (SARS-CoV-2 nsp3-mac1 [2]; [19]): 3.8% |
